Data from ChEMBL document CHEMBL1201862, “PubChem BioAssay data set” (2004).
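Protocol summary: plate cells (96-well), add compound at 5 concentrations, incubate 48 h, interpolate endpoints linearly. At the GI50, growth is halved.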 Activity calls are given as the source filed them. No stated cut-off is given here; in the data, active = GI50 up to about 1.1 µM and inactive = higher.

How the values were obtained:
Assay in all cases: DTP human tumour cell line panel, 48 h
[1] = test system: DLD-1
[2] = test system: DMS-273
[3] = test system: HOP-18
[4] = test system: KM-20L2
[5] = test system: LXFL 529
[6] = test system: RXF 631
[7] = test system: SNB-78
[8] = test system: XF498
[9] = test system: DMS-114

Row | SMILES | GI50 [1] | GI50 [2] | GI50 [3] | GI50 [4] | GI50 [5] | GI50 [6] | GI50 [7] | GI50 [8] | GI50 [9]
1 | Cc1cn(C2C=CC(=O)C(C)O2)c(=O)[nH]c1=O (configuration not stated) | 14.1 µM (inactive) | 18.1 µM (inactive) | 15 µM (inactive) | 16.3 µM (inactive) | 14.8 µM (inactive) | 15.2 µM (inactive) | 16.7 µM (inactive) | 13.5 µM (inactive) | 
2 | Cc1ccc(S(=O)(=O)OC(c2ccc(Cl)cc2Cl)C2OC(=O)c3ccccc32)cc1 (configuration not stated) |  | 75.5 µM (inactive) |  | 32.7 µM (inactive) | > 100 µM (inactive) |  | > 100 µM (inactive) | > 100 µM (inactive) | 45.8 µM (inactive)
3 | CCc1ccccc1NC(=O)C(=O)C(C#N)c1c(Cl)cccc1Cl (configuration not stated) | > 100 µM (inactive) | > 100 µM (inactive) |  | > 100 µM (inactive) | > 100 µM (inactive) | > 100 µM (inactive) | > 100 µM (inactive) | > 100 µM (inactive) | 
4 | O=C1CCC(c2ccccc2)=NN1c1nc2ccccc2s1 | 34.1 µM (inactive) | 40.2 µM (inactive) | 18.8 µM (inactive) |  | 41.8 µM (inactive) |  | 41.2 µM (inactive) | 31.9 µM (inactive) | 31 µM (inactive)
5 | Cc1cc2c(cc1C)[n+]([O-])c(C(=O)C/C(=N/OCCCc1ccccc1)C(=O)Nc1cc(Cl)ccc1Cl)c(C)[n+]2[O-] | > 100 µM (inactive) | > 100 µM (inactive) | > 100 µM (inactive) | > 100 µM (inactive) | > 100 µM (inactive) | > 100 µM (inactive) | > 100 µM (inactive) | > 100 µM (inactive) | 
6 | CCN1C(=O)N(C)C(O)c2c1nc1ccccn1c2=O (configuration not stated) | 31.4 µM (inactive) | 19.5 µM (inactive) | 22.3 µM (inactive) | 25.5 µM (inactive) | 29 µM (inactive) |  | 28.1 µM (inactive) | 26.2 µM (inactive) | 7.4 µM (inactive)
7 | C/C(CC(=O)Nc1ccc(C)cc1)=N\NC(N)=S | 97.7 µM (inactive) |  |  | > 100 µM (inactive) | 72.3 µM (inactive) |  | > 100 µM (inactive) | > 100 µM (inactive) | > 100 µM (inactive)
8 | CCOC(=O)C1=C(C)N2CCOC2(C)C(C(=O)OC)C1c1cccc(Cl)c1 (configuration not stated) | > 100 µM (inactive) | > 100 µM (inactive) | > 100 µM (inactive) | > 100 µM (inactive) | > 100 µM (inactive) |  | > 100 µM (inactive) |  | 54 µM (inactive)
9 | CCOC(=O)/C(C#N)=C(O)/C(=C/c1ccccc1Cl)NC(=O)c1ccccc1 | > 100 µM (inactive) | 31.5 µM (inactive) | > 100 µM (inactive) | > 100 µM (inactive) | > 100 µM (inactive) |  | > 100 µM (inactive) |  | > 100 µM (inactive)
10 | Cn1cccc1/C=C/c1cc(Br)c(/C=C/c2cccn2C)cc1Br | 0.643 µM (active) | 18.5 µM (inactive) | 5 µM (inactive) | 16.3 µM (inactive) | 12.3 µM (inactive) | 13.9 µM (inactive) |  |  | 11.6 µM (inactive)
11 | CN(C)CCC(=O)c1ccccc1 | 19.8 µM (inactive) | > 58.2 µM (inactive) | > 56.4 µM (inactive) | > 43.8 µM (inactive) | 26.3 µM (inactive) |  | 38.2 µM (inactive) | 19.4 µM (inactive) | > 39.1 µM (inactive)
12 | CC(=O)OCC(=O)[C@@]12OC(C)(C)O[C@@H]1C[C@H]1[C@@H]3CC(C=O)=C4C=C(OCCCl)CC[C@]4(C)[C@@]3(F)[C@@H](O)C[C@@]12C [FORMOCORTAL] | 23 µM (inactive) | 19.9 µM (inactive) | 18.5 µM (inactive) | 11.8 µM (inactive) |  |  | 15 µM (inactive) | 15.1 µM (inactive) | > 100 µM (inactive)
13 | N#CCc1c(-c2ccccc2)n(S(=O)(=O)c2ccccc2)c2ccccc12 | > 100 µM (inactive) | > 100 µM (inactive) |  | > 100 µM (inactive) | > 100 µM (inactive) |  |  | > 100 µM (inactive) | 64.9 µM (inactive)
14 | Cc1ccc(SSCCCCS(=O)O)cc1 | 25.4 µM (inactive) | 19.6 µM (inactive) | 41.9 µM (inactive) | 20.4 µM (inactive) | 12.9 µM (inactive) | 11.7 µM (inactive) | 25.1 µM (inactive) | 14.8 µM (inactive) | 11.5 µM (inactive)
15 | Cc1cc(Br)ccc1/N=N/c1c(C)nn(-c2ccccc2)c1-c1ccccc1 | 30.9 µM (inactive) | 34.3 µM (inactive) | > 100 µM (inactive) |  | 45.8 µM (inactive) |  | > 100 µM (inactive) | > 100 µM (inactive) | 89.5 µM (inactive)
16 | COC1C=CC(C(=O)[N+]2=Cc3[nH]c4ccccc4c3CC2)O1 (configuration not stated) | > 100 µM (inactive) | 82.2 µM (inactive) | > 100 µM (inactive) | > 100 µM (inactive) | 98.2 µM (inactive) | > 100 µM (inactive) | > 100 µM (inactive) |  | 66.4 µM (inactive)

Row | SMILES | GI50 [1] | GI50 [2] | GI50 [3] | GI50 [4] | GI50 [5] | GI50 [6] | GI50 [7] | GI50 [8] | GI50 [9]
17 | O=C1c2c(c3c4ccccc4n4c3c3c2c2ccccc2n3C/C=C\C4)C(=O)N1Cc1ccccc1 | > 100 µM (inactive) |  | > 100 µM (inactive) | > 100 µM (inactive) | > 100 µM (inactive) |  |  | 31.3 µM (inactive) | 
18 | NNC(=O)/C(=C/c1cccc([N+](=O)[O-])c1)NC(=O)c1ccccc1 | > 100 µM (inactive) | > 100 µM (inactive) | > 100 µM (inactive) |  | > 100 µM (inactive) | > 100 µM (inactive) | > 100 µM (inactive) | > 100 µM (inactive) | > 100 µM (inactive)
19 | CC(=O)OCCOCn1c2ccccc2c2c3c(c4c5ccccc5n(COCCOC(C)=O)c4c21)C(=O)N(Cc1ccccc1)C3=O | > 100 µM (inactive) | > 100 µM (inactive) |  | > 100 µM (inactive) | > 100 µM (inactive) |  | > 100 µM (inactive) |  | 
20 | COC1OC(CBr)C(OC(=O)c2ccccc2)C(OS(=O)(=O)c2ccc(C)cc2)C1Br (configuration not stated) |  | > 100 µM (inactive) |  | > 100 µM (inactive) | > 100 µM (inactive) |  | > 100 µM (inactive) |  | 
21 | CCCCCCCC(=O)O[C@H]1[C@H]2[C@@H](CC1(C)C)C(=O)[C@]13O[C@H]1C(=O)[C@]1(CO1)[C@]23C | 1.89 µM (inactive) | 5.96 µM (inactive) | 5.33 µM (inactive) | 4.89 µM (inactive) | 1.58 µM (inactive) | 17.8 µM (inactive) | 4.94 µM (inactive) | 3.26 µM (inactive) | 3.41 µM (inactive)
22 | O=C(O)C[C@H]1CCCCC12CCOC2=O (some centres not stated) | > 100 µM (inactive) | > 100 µM (inactive) | > 100 µM (inactive) | > 100 µM (inactive) | > 100 µM (inactive) | > 100 µM (inactive) | > 100 µM (inactive) | > 100 µM (inactive) | > 100 µM (inactive)
23 | COc1ccc(C(=O)C(C(=O)CCC(=O)Nc2cccc(Cl)c2)c2ccc(OC)cc2)cc1 (configuration not stated) | > 100 µM (inactive) | > 100 µM (inactive) | 53.3 µM (inactive) | > 100 µM (inactive) | > 100 µM (inactive) | > 100 µM (inactive) |  | > 100 µM (inactive) | 
24 | Nc1nc(O)c2nc(N)n(Cc3ccccc3)c2n1 | > 100 µM (inactive) | > 100 µM (inactive) |  | > 100 µM (inactive) | > 100 µM (inactive) |  |  | > 100 µM (inactive) | > 100 µM (inactive)
25 | COc1ccc(S(=O)(=O)Nc2ccccc2C(=O)O)cc1 | > 100 µM (inactive) | > 100 µM (inactive) | > 100 µM (inactive) | > 100 µM (inactive) | > 100 µM (inactive) | > 100 µM (inactive) |  | > 100 µM (inactive) | 
26 | CCCCCCCCCCCCCCCCc1c(O)nc(NN)nc1C(=O)OC | > 50 µM (inactive) | > 50 µM (inactive) | > 50 µM (inactive) | > 50 µM (inactive) | > 50 µM (inactive) | > 50 µM (inactive) | > 50 µM (inactive) | > 50 µM (inactive) | > 50 µM (inactive)
27 | [N-]=[N+]=NC1(Cc2ccccc2)C(=O)c2cccc3c2N(CCC3)C1=O (configuration not stated) | > 100 µM (inactive) | > 100 µM (inactive) | > 100 µM (inactive) |  | > 100 µM (inactive) |  |  |  | > 100 µM (inactive)
28 | O=C1C2C3C=C4c5ccccc5N(c5ccccc5)C4(C2C(=O)N1c1ccccc1)C1C(=O)N(c2ccccc2)C(=O)C31 (configuration not stated) | > 100 µM (inactive) |  | > 100 µM (inactive) | > 100 µM (inactive) | > 100 µM (inactive) | > 100 µM (inactive) | > 100 µM (inactive) | 37 µM (inactive) | > 100 µM (inactive)
29 | Cc1ccc(-c2cc(-c3ccccc3)c(C#N)c(=O)[nH]2)cc1 | > 100 µM (inactive) | > 100 µM (inactive) | > 100 µM (inactive) | > 100 µM (inactive) | > 100 µM (inactive) | > 100 µM (inactive) | > 100 µM (inactive) |  | > 100 µM (inactive)
30 | N/C(=N\O)N/N=C/c1cccc(F)c1 | 64 µM (inactive) | 48.9 µM (inactive) | 25.1 µM (inactive) | 32.2 µM (inactive) | 27 µM (inactive) | 26.1 µM (inactive) | > 100 µM (inactive) | 43.7 µM (inactive) | 22.9 µM (inactive)
31 | CCCCC(/C=N/NC(=N)N)CC.Cc1cc(O)c(C(C)C)cc1S(=O)(=O)O | > 100 µM (inactive) | 38 µM (inactive) |  | 45.7 µM (inactive) | 70.8 µM (inactive) |  | 84.7 µM (inactive) |  | 24.5 µM (inactive)
32 | Cc1nc2c(C)c3c([nH]c4ccc(Cl)cc43)c(C)c2c(O)c1C | 14.2 µM (inactive) | 9.02 µM (inactive) | 33.8 µM (inactive) |  |  |  | > 100 µM (inactive) | 43.2 µM (inactive) | 19.8 µM (inactive)
